Where two headings read alike, the source gives them in different places.
Key:
[1] = system: mRNA expressed from the genes (A) to (D) in rat liver; test: Behavior of genes (mRNA expression level, oligo-DNA microarray) in rat liver after 28-day oral administration; format: in vivo
Method in brief: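 Liver mRNA levels were compared with matched vehicle groups, with a shift of at least 1.5-fold up or down deemed significant unless its direction disagreed with other carcinogens. Test substances were dosed orally by gavage daily for 28 days to 5-week-old male F344 rats, four per group.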

[2] = classification of the substance (M+/M−); cited from earlier work
[3] = system: rodent; conditions: cited from earlier work
[4] = system: liver; conditions: in vivo; cited from earlier work
[5] = gene group (A), Unigene No. Rn.167075
[6] = gene group (C), Unigene No. Rn.120914

Cc1c(C)c2c(c(C)c1O)CC[C@@](C)(CCC[C@H](C)CCC[C@H](C)CCCC(C)C)O2 [TS062, α-Tocopherol (Vitamin E)]
C−: Carcinogenicity ([3]; in vivo)
+: Behavior of gene caused by administration of chemical substance, Gene No. 1163 ([1]; rat, in vivo) | Behavior of gene caused by administration of chemical substance, Gene No. 6742 ([1]; rat, in vivo)
−: Behavior of gene caused by administration of chemical substance, Gene No. 154 ([1]; rat, in vivo) | Behavior of gene caused by administration of chemical substance, Gene No. 533 ([1]; rat, in vivo) | Behavior of gene caused by administration of chemical substance, Gene No. 725 ([1]; rat, in vivo) | Behavior of gene caused by administration of chemical substance, Gene No. 813 ([1]; rat, in vivo) | Behavior of gene caused by administration of chemical substance, Gene No. 893 ([1]; rat, in vivo) | Behavior of gene caused by administration of chemical substance, Gene No. 1119 ([1]; rat, in vivo) | Behavior of gene caused by administration of chemical substance, Gene No. 1131 ([1]; rat, in vivo) | Behavior of gene caused by administration of chemical substance, Gene No. 1334 ([1]; rat, in vivo) | Behavior of gene caused by administration of chemical substance, Gene No. 1494 ([1]; rat, in vivo) | Behavior of gene caused by administration of chemical substance, Gene No. 1562 ([1]; rat, in vivo) | Behavior of gene caused by administration of chemical substance, Gene No. 1741 ([1]; rat, in vivo) | Behavior of gene caused by administration of chemical substance, Gene No. 1993 ([1]; rat, in vivo) | Behavior of gene caused by administration of chemical substance, Gene No. 2026 ([1]; rat, in vivo) | Behavior of gene caused by administration of chemical substance, Gene No. 2045 ([1]; rat, in vivo) | Behavior of gene caused by administration of chemical substance, Gene No. 2203 ([1]; rat, in vivo) | Behavior of gene caused by administration of chemical substance, Gene No. 2494 ([1]; rat, in vivo) | Behavior of gene caused by administration of chemical substance, Gene No. 2546 ([1]; rat, in vivo) | Behavior of gene caused by administration of chemical substance, Gene No. 3776 ([1]; rat, in vivo) | Behavior of gene caused by administration of chemical substance, Gene No. 3929 ([1]; rat, in vivo) | Behavior of gene caused by administration of chemical substance, Gene No. 4095 ([1]; rat, in vivo) | Behavior of gene caused by administration of chemical substance, Gene No. 4218 ([1]; rat, in vivo) | Behavior of gene caused by administration of chemical substance, Gene No. 4846 ([1]; rat, in vivo) | Behavior of gene caused by administration of chemical substance, Gene No. 4973 ([1]; rat, in vivo) | Behavior of gene caused by administration of chemical substance, Gene No. 5600 ([1]; rat, in vivo) | Behavior of gene caused by administration of chemical substance, Gene No. 5634 ([1]; rat, in vivo) | Behavior of gene caused by administration of chemical substance, Gene No. 5726 ([1]; rat, in vivo) | Behavior of gene caused by administration of chemical substance, Gene No. 5878 ([1]; rat, in vivo) | Behavior of gene caused by administration of chemical substance, Gene No. 6026 ([1]; rat, in vivo) | Behavior of gene caused by administration of chemical substance, Gene No. 6182 ([1]; rat, in vivo) | Behavior of gene caused by administration of chemical substance, Gene No. 6303 ([1]; rat, in vivo) | Behavior of gene caused by administration of chemical substance, Gene No. 6620 ([1]; rat, in vivo)
M−: Mutagenicity by Ames test [2]
Cr−: Liver carcinogenicity [4]

O=C1CCCCCN1 [TS074, Caprolactam]
Cr−: Liver carcinogenicity [4]
−: Behavior of gene caused by administration of chemical substance, Gene No. 4846 ([1]; gene group (A), Unigene No. Rn.144554) | Behavior of gene caused by administration of chemical substance, Gene No. 2026 [1, 5] | Behavior of gene caused by administration of chemical substance, Gene No. 4218 [1, 5] | Behavior of gene caused by administration of chemical substance, Gene No. 5600 ([1]; gene group (A), Unigene No. Rn.9836) | Behavior of gene caused by administration of chemical substance, Gene No. 1494 ([1]; gene group (B), Unigene No. Rn.1430) | Behavior of gene caused by administration of chemical substance, Gene No. 2203 ([1]; gene group (B), Unigene No. Rn.21240) | Behavior of gene caused by administration of chemical substance, Gene No. 533 ([1]; gene group (C), Unigene No. Rn.106184) | Behavior of gene caused by administration of chemical substance, Gene No. 1163 ([1]; gene group (C), Unigene No. Rn.11766) | Behavior of gene caused by administration of chemical substance, Gene No. 1334 [1, 6] | Behavior of gene caused by administration of chemical substance, Gene No. 6620 [1, 6] | Behavior of gene caused by administration of chemical substance, Gene No. 6303 ([1]; gene group (C), Unigene No. Rn.123063) | Behavior of gene caused by administration of chemical substance, Gene No. 5878 ([1]; gene group (C), Unigene No. Rn.143213) | Behavior of gene caused by administration of chemical substance, Gene No. 1131 ([1]; gene group (C), Unigene No. Rn.144946) | Behavior of gene caused by administration of chemical substance, Gene No. 1562 ([1]; gene group (C), Unigene No. Rn.14744) | Behavior of gene caused by administration of chemical substance, Gene No. 893 ([1]; gene group (C), Unigene No. Rn.164817) | Behavior of gene caused by administration of chemical substance, Gene No. 6026 ([1]; gene group (C), Unigene No. Rn.167685) | Behavior of gene caused by administration of chemical substance, Gene No. 154 ([1]; gene group (C), Unigene No. Rn.185941) | Behavior of gene caused by administration of chemical substance, Gene No. 1993 ([1]; gene group (C), Unigene No. Rn.18728) | Behavior of gene caused by administration of chemical substance, Gene No. 813 ([1]; gene group (C), Unigene No. Rn.201760) | Behavior of gene caused by administration of chemical substance, Gene No. 2494 ([1]; gene group (C), Unigene No. Rn.23969) | Behavior of gene caused by administration of chemical substance, Gene No. 2546 ([1]; gene group (C), Unigene No. Rn.24561) | Behavior of gene caused by administration of chemical substance, Gene No. 1119 ([1]; gene group (C), Unigene No. Rn.9757) | Behavior of gene caused by administration of chemical substance, Gene No. 6742 ([1]; gene group (C), Unigene No. Rn.9779) | Behavior of gene caused by administration of chemical substance, Gene No. 5726 ([1]; gene group (D), Unigene No. Rn.9939)
+: Behavior of gene caused by administration of chemical substance, Gene No. 6182 ([1]; gene group (A), Unigene No. Rn.5834) | Behavior of gene caused by administration of chemical substance, Gene No. 2045 ([1]; gene group (B), Unigene No. Rn.19329) | Behavior of gene caused by administration of chemical substance, Gene No. 725 ([1]; gene group (C), Unigene No. Rn.108075) | Behavior of gene caused by administration of chemical substance, Gene No. 4973 ([1]; gene group (C), Unigene No. Rn.118529) | Behavior of gene caused by administration of chemical substance, Gene No. 4095 ([1]; gene group (C), Unigene No. Rn.119024) | Behavior of gene caused by administration of chemical substance, Gene No. 1741 ([1]; gene group (C), Unigene No. Rn.1647) | Behavior of gene caused by administration of chemical substance, Gene No. 3776 ([1]; gene group (C), Unigene No. Rn.43232) | Behavior of gene caused by administration of chemical substance, Gene No. 3929 ([1]; gene group (C), Unigene No. Rn.4620) | Behavior of gene caused by administration of chemical substance, Gene No. 5634 ([1]; gene group (C), Unigene No. Rn.9862)
M−: Mutagenicity by Ames test [2]
C−: Carcinogenicity ([3]; classification of the substance (C+/C−))
